Drawing on patent publication US20230174538A1, “Tricyclic heterocycles” (Merck Patent GmbH, priority 2020, published 2023), this text covers IC50 for 39 compounds.

For orientation: IC50 means the midpoint of a concentration-inhibition curve.

This test relates to YAP-TEAD interaction. Briefly: SK-HEP-1 reporter assay (8xTEAD responsive elements driving NanoLuc luciferase). It counts as cell-based. Conditions: Homo sapiens, SK-HEP1, SK-HEP-1 reporter assay. The essentials:
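SK-HEP-1 cells stably carrying an 8×TEAD-element NanoLuc reporter were treated in duplicate with 10-point dilutions from a top final 30 μM (0.3% DMSO). After 24 h at 37 °C, luciferase activity was read by luminescence with NanoGlo lysis/substrate reagent, and IC50 values were derived.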
For orientation: In a reporter assay the amount or activity of a reporter protein is the signal.
On to `Cn1cc2c3cc(C(=O)O)ccc3n(-c3cccc(F)c3)c2n1` [Example 7, 8-(3-fluorophenyl)-2-methyl-2H,8H-pyrazolo[3,4-b]indole-5-carboxylic acid], for which the IC50 lay in the range of 0.01 to 0.1 µM.
Regarding `COCC1(C)CCCN1C(=O)c1ccc2c(c1)c1cn(C)nc1n2-c1ccc(C(F)(F)F)cc1` (stereo not drawn) [Example B89, 2-(methoxymethyl)-2-methyl-1-{2-methyl-8-[4-(trifluoromethyl)phenyl]-2H,8H-pyrazolo[3,4-b]indole-5-carbonyl}pyrrolidine], the IC50 was 0.1 to 10 µM.
In the case of `Cn1cc2c3cc(C(=O)NCCc4cc(O)no4)ccc3n(-c3ccc(C(F)(F)F)cc3)c2n1` [B113^] it was 0.1 to 10 µM; in that of `Cn1cc2c3cc(C(=O)NCC4(n5cncn5)CC4)ccc3n(-c3ccc(C(F)(F)F)cc3)c2n1` [B103^], 0.1 to 10 µM; in that of `Cn1cc2c3cc(C(=O)NC4CCCN(CCF)C4)ccc3n(-c3ccc(C(F)(F)F)cc3)c2n1` (stereo not drawn) [B143^], > 10 µM.
With `Cn1cc2c3cc(C(=O)N(CCO)Cc4ccnn4C)ccc3n(-c3ccc(C(F)(F)F)cc3)c2n1` [Example B27, N-(2-hydroxyethyl)-2-methyl-N-[(1-methyl-1H-pyrazol-5-yl)methyl]-8-[4-(trifluoromethyl)phenyl]-2H,8H-pyrazolo[3,4-b]indole-5-carboxamide], the IC50 lay in the range of 0.01 to 0.1 µM.
As to `Cn1cc2c3cc(C(=O)NCCn4ccc(C5CC5)n4)ccc3n(-c3ccc(C(F)(F)F)cc3)c2n1` [B107^], the IC50 fell in the range of 0.1 to 10 µM.
Turning to `Cn1cc2c3cc(C(=O)NC4(Cc5nc[nH]n5)CC4)ccc3n(-c3ccc(C(F)(F)F)cc3)c2n1` [Example B80, 2-methyl-N-{1-[(1H-1,2,4-triazol-3-yl)methyl]cyclopropyl}-8-[4-(trifluoromethyl)phenyl]-2H,8H-pyrazolo[3,4-b]indole-5-carboxamide], the IC50 lay within 0.01 to 0.1 µM.
`CCC(NC(=O)c1ccc2c(c1)c1cn(C)nc1n2-c1ccc(C(F)(F)F)cc1)c1c[nH]nn1` (stereo not drawn) [Example B3, 2-methyl-N-[1-(1H-1,2,3-triazol-4-yl)propyl]-8-[4-(trifluoromethyl)phenyl]-2H,8H-pyrazolo[3,4-b]indole-5-carboxamide] displayed an IC50 of 0.01 to 0.1 µM.
The compound `Cn1cc2c3cc(C(=O)NC4CCCc5[nH]ccc54)ccc3n(-c3ccc(C(F)(F)F)cc3)c2n1` (stereo not drawn) [Example B44, 2-methyl-N-(4,5,6,7-tetrahydro-1H-indol-4-yl)-8-[4-(trifluoromethyl)phenyl]-2H,8H-pyrazolo[3,4-b]indole-5-carboxamide] showed an IC50 of 0.1 to 10 µM.
In the case of `Cn1cc2c3cc(C(=O)NC[C@@H]4C[C@H]4C4CCOCC4)ccc3n(-c3ccc(C(F)(F)F)cc3)c2n1` [B116^] it was > 10 µM; in that of `CC(CCc1ccccn1)NC(=O)c1ccc2c(c1)c1cn(C)nc1n2-c1ccc(C(F)(F)F)cc1` (stereo not drawn) [Example B79, 2-methyl-N-[4-(pyridin-2-yl)butan-2-yl]-8-[4-(trifluoromethyl)phenyl]-2H,8H-pyrazolo[3,4-b]indole-5-carboxamide], 0.1 to 10 µM; in that of `Cn1cc2c3cc(C(=O)NC4CN(c5ccncn5)C4)ccc3n(-c3ccc(C(F)(F)F)cc3)c2n1` [B104^], > 10 µM.
In the case of `CCn1nnc(C)c1CNC(=O)c1ccc2c(c1)c1cn(C)nc1n2-c1ccc(C(F)(F)F)cc1` [Example B96, N-[(1-ethyl-4-methyl-1H-1,2,3-triazol-5-yl)methyl]-2-methyl-8-[4-(trifluoromethyl)phenyl]-2H,8H-pyrazolo[3,4-b]indole-5-carboxamide] it was 0.1 to 10 µM; in that of `Cn1cc2c3cc(NC(=O)CCl)ccc3n(-c3ccc(C(F)(F)F)cc3)c2n1` [Example 23, 2-chloro-N-[2-methyl-8-[4-(trifluoromethyl)phenyl]pyrazolo[3,4-b]indol-5-yl]acetamide], > 10 µM; in that of `Cc1nc(CNC(=O)c2ccc3c(c2)c2cn(C)nc2n3-c2ccc(C(F)(F)F)cc2)n[nH]1` [B144^], 0.01 to 0.1 µM.
The compound `COc1nn(C)cc1CNC(=O)c1ccc2c(c1)c1cn(C)nc1n2-c1ccc(C(F)(F)F)cc1` [Example B93, N-[(3-methoxy-1-methyl-1H-pyrazol-4-yl)methyl]-2-methyl-8-[4-(trifluoromethyl)phenyl]-2H,8H-pyrazolo[3,4-b]indole-5-carboxamide] registered an IC50 of 0.01 to 0.1 µM.
In the case of `CN(Cc1c[nH]cn1)C(=O)c1ccc2c(c1)c1cn(C)nc1n2-c1ccc(C(F)(F)F)cc1` [Example B50, N-[(1H-imidazol-4-yl)methyl]-N,2-dimethyl-8-[4-(trifluoromethyl)phenyl]-2H,8H-pyrazolo[3,4-b]indole-5-carboxamide] it was 0.1 to 10 µM.
Regarding `Cn1cc2c3cc(C(=O)N4CCCC(OCC5CC5)C4)ccc3n(-c3ccc(C(F)(F)F)cc3)c2n1` (stereo not drawn) [Example B62, 3-(cyclopropylmethoxy)-1-{2-methyl-8-[4-(trifluoromethyl)phenyl]-2H,8H-pyrazolo[3,4-b]indole-5-carbonyl}piperidine], the IC50 was > 10 µM.
Compound `Cn1cc2c3cc(C(=O)NC45CC4COC5(C)C)ccc3n(-c3ccc(C(F)(F)F)cc3)c2n1` (stereo not drawn) [Example B73, N-(2,2-dimethyl-3-oxabicyclo[3.1.0]hexan-1-yl}-2-methyl-8-[4-(trifluoromethyl)phenyl]-2H,8H-pyrazolo[3,4-b]indole-5-carboxamide] yielded an IC50 of 0.1 to 10 µM.
As for `Cc1c[nH]c(C(NC(=O)c2ccc3c(c2)c2cn(C)nc2n3-c2ccc(C(F)(F)F)cc2)C2CC2)n1` (stereo not drawn) [B145^], the IC50 is > 10 µM.
Compound `Cn1cc2c3cc(C(=O)NCc4cc5ncccc5[nH]4)ccc3n(-c3ccc(C(F)(F)F)cc3)c2n1` [Example B6, 2-methyl-N-({1H-pyrrolo[3,2-b]pyridin-2-yl}methyl)-8-[4-(trifluoromethyl)phenyl]-2H,8H-pyrazolo[3,4-b]indole-5-carboxamide] yielded an IC50 of 0.1 to 10 µM.
As for `CCCc1nc(C)c(CNC(=O)c2ccc3c(c2)c2cn(C)nc2n3-c2ccc(C(F)(F)F)cc2)o1` [B124^], the figure is 0.01 to 0.1 µM.
Take `Cc1ncncc1[C@@H](C)NC(=O)c1ccc2c(c1)c1cn(C)nc1n2-c1ccc(C(F)(F)F)cc1` [B118^]: the IC50 lay in the range of 0.1 to 10 µM.
The compound `Cn1cc2c(n1)c1cc(C(=O)O)ccc1n2-c1ccc(C(F)(F)F)cc1` [Example 4, 2-methyl-4-[4-(trifluoromethyl)phenyl]-2H,4H-pyrazolo[4,3-b]indole-7-carboxylic acid] came in with an IC50 of 0.1 to 10 µM.
As for `CCCn1ncnc1CNC(=O)c1ccc2c(c1)c1cn(C)nc1n2-c1ccc(C(F)(F)F)cc1` [B138^], the figure is 0.1 to 10 µM; as for `CC1CN(CCNC(=O)c2ccc3c(c2)c2cn(C)nc2n3-c2ccc(C(F)(F)F)cc2)CCO1` (stereo not drawn) [Example B78, 2-methyl-N-[2-(2-methylmorpholin-4-yl)ethyl]-8-[4-(trifluoromethyl)phenyl]-2H,8H-pyrazolo[3,4-b]indole-5-carboxamide], 0.1 to 10 µM; as for `Cn1cc2c3cc(C(=O)NCCCc4cc[nH]n4)ccc3n(-c3ccc(C(F)(F)F)cc3)c2n1` [B142^], 0.1 to 10 µM.
Regarding `Cn1cc2c3cc(C(=O)NC[C@@H]4C[C@H]4c4ccco4)ccc3n(-c3ccc(C(F)(F)F)cc3)c2n1` [B128^], the IC50 fell in the range of 0.1 to 10 µM.
With `CCn1ncc(CNC(=O)c2ccc3c(c2)c2cn(C)nc2n3-c2ccc(C(F)(F)F)cc2)c1F` [B119^], the IC50 was > 10 µM.
Regarding `Cn1cc2c3cc(C(=O)NCc4cncn4CCF)ccc3n(-c3ccc(C(F)(F)F)cc3)c2n1` [Example B82, N-{[1-(2-fluoroethyl)-1H-imidazol-5-yl]methyl}-2-methyl-8-[4-(trifluoromethyl)phenyl]-2H,8H-pyrazolo[3,4-b]indole-5-carboxamide], the IC50 lay within 0.1 to 10 µM.
On to `Cn1cc2c3cc(C(=O)N4CCCC4c4ncc[nH]4)ccc3n(-c3ccc(C(F)(F)F)cc3)c2n1` (stereo not drawn) [Example B52, 2-(1-{2-methyl-8-[4-(trifluoromethyl)phenyl]-2H,8H-pyrazolo[3,4-b]indole-5-carbonyl}pyrrolidin-2-yl)-1H-imidazole], for which the IC50 was > 10 µM.
Take `Cn1cc2c3cc(C(=O)N[C@@H]4COC5(CCC5)[C@H]4O)ccc3n(-c3ccc(C(F)(F)F)cc3)c2n1` (relative stereo) [Example B23, N-[(7R,8S)-8-hydroxy-5-oxaspiro[3.4]octan-7-yl]-2-methyl-8-[4-(trifluoromethyl)phenyl]-2H,8H-pyrazolo[3,4-b]indole-5-carboxamide]: the IC50 was 0.1 to 10 µM.
Compound `CC(C)CC(NC(=O)c1ccc2c(c1)c1cn(C)nc1n2-c1ccc(C(F)(F)F)cc1)c1nc[nH]n1` (stereo not drawn) [Example B24, 2-methyl-N-[3-methyl-1-(1H-1,2,4-triazol-3-yl)butyl]-8-[4-(trifluoromethyl)phenyl]-2H,8H-pyrazolo[3,4-b]indole-5-carboxamide] yielded an IC50 of 0.1 to 10 µM.
Consider `CC(CNC(=O)c1ccc2c(c1)c1cn(C)nc1n2-c1ccc(C(F)(F)F)cc1)c1ccc(F)cn1` (stereo not drawn) [Example B92, N-[2-(5-fluoropyridin-2-yl)propyl]-2-methyl-8-[4-(trifluoromethyl)phenyl]-2H,8H-pyrazolo[3,4-b]indole-5-carboxamide], for which the IC50 is 0.1 to 10 µM.
Regarding `Cc1[nH]ncc1CCCNC(=O)c1ccc2c(c1)c1cn(C)nc1n2-c1ccc(C(F)(F)F)cc1` [B132^], the IC50 fell in the range of 0.1 to 10 µM.
Consider `Cn1cc2c3cc(C(=O)NCc4n[nH]c5c4CCCC5)ccc3n(-c3ccc(C(F)(F)F)cc3)c2n1` [Example B29, 2-methyl-N-[(4,5,6,7-tetrahydro-1H-indazol-3-yl)methyl]-8-[4-(trifluoromethyl)phenyl]-2H,8H-pyrazolo[3,4-b]indole-5-carboxamide], for which the IC50 was > 10 µM.
For the compound `Cn1cc2c3cc(C(=O)NCCc4nncn4C4CC4)ccc3n(-c3ccc(C(F)(F)F)cc3)c2n1` [B110^], the IC50 was > 10 µM.
The compound `Cn1cc2c3cc(C(=O)NC4(c5cncn5C)CC4)ccc3n(-c3ccc(C(F)(F)F)cc3)c2n1` [Example B70, 2-methyl-N-[1-(1-methyl-1H-imidazol-5-yl)cyclopropyl]-8-[4-(trifluoromethyl)phenyl]-2H,8H-pyrazolo[3,4-b]indole-5-carboxamide] yielded an IC50 of 0.1 to 10 µM.
